Experimental data reported in ChEMBL document CHEMBL3885861, “Open TG-GATES”.

Species: Rattus norvegicus
Experiment: Open TG-GATES - Regimen: Single
Type: toxicity, organism-based, Sprague-Dawley
Parameters: regimen Single, gender Male, age 6 weeks
Conditions: in vivo, po, 0 mg/kg, route gavage, dose level Control; for APTT / Bas / Eos / Fbg / Ht / Lym / MCH / MCHC / MCV / Mono / Neu / PT / Plat / RBC / Ret / WBC: tissue Blood; for KIDNEY_L / KIDNEY_R / KIDNEY_TOTAL: tissue Kidney; for LIVER: tissue Liver; for ALP / ALT / AST / BUN / CRE / Ca / Cl / DBIL / GLC / IP / K / LDH / Na / PL / RALB / TBIL / TC / TG / TP / gamma-GTP: tissue Plasma

## Cc1cccc(Nc2cc(Cl)nc(SCC(=O)O)n2)c1C [PIRINIXIC ACID]
3 h
  TERMINAL_BW: 202.9 g
  APTT: 15.1 s
  Bas: 0%
  Eos: 0.4%
  Fbg: 280 mg/dL
  Ht: 40.2%
  Lym: 77.6%
  MCH: 21.5 pg
  MCHC: 33.9%
  MCV: 63.3 fL
  Mono: 2.6%
  Neu: 18%
  PT: 12.3 s
  Plat: 115.3 x10_4/uL
  RBC: 636.6 x10_4/ul
  Ret: 7.4%
  WBC: 78.3 x10_2/uL
  KIDNEY_L: 0.9 g
  KIDNEY_R: 0.8 g
  KIDNEY_TOTAL: 1.7 g
  LIVER: 8.6 g
  ALP: 1509.2 IU/L
  ALT: 48.6 IU/L
  AST: 77.6 IU/L
  BUN: 11 mg/dL
  CRE: 0.2 mg/dL
  Ca: 10.9 mg/dL
  Cl: 104.8 meq/L
  DBIL: 0.036 mg/dL
  GLC: 183.6 mg/dL
  IP: 10.5 mg/dL
  K: 3.8 meq/L
  LDH: 91.6 IU/L
  Na: 140 meq/L
  PL: 166.4 mg/dL
  RALB: 2.6 g/dL
  TBIL: 0.046 mg/dL
  TC: 82.8 mg/dL
  TG: 121 mg/dL
  TP: 5.6 g/dL
  gamma-GTP: 1.2 IU/L
6 h
  TERMINAL_BW: 201.9 g
  APTT: 17.1 s
  Bas: 0%
  Eos: 0.6%
  Fbg: 283.8 mg/dL
  Ht: 40.4%
  Lym: 73.4%
  MCH: 22 pg
  MCHC: 34.3%
  MCV: 64 fL
  Mono: 2.2%
  Neu: 22.8%
  PT: 12.2 s
  Plat: 115 x10_4/uL
  RBC: 630.8 x10_4/ul
  Ret: 7.6%
  WBC: 95.9 x10_2/uL
  KIDNEY_L: 0.8 g
  KIDNEY_R: 0.8 g
  KIDNEY_TOTAL: 1.7 g
  LIVER: 8 g
  ALP: 1969 IU/L
  ALT: 37.8 IU/L
  AST: 74.4 IU/L
  BUN: 10.2 mg/dL
  CRE: 0.2 mg/dL
  Ca: 10.7 mg/dL
  Cl: 106.2 meq/L
  DBIL: 0.026 mg/dL
  GLC: 185.8 mg/dL
  IP: 10.3 mg/dL
  K: 4.1 meq/L
  LDH: 69.2 IU/L
  Na: 139.8 meq/L
  PL: 145 mg/dL
  RALB: 2.5 g/dL
  TBIL: 0.046 mg/dL
  TC: 75.8 mg/dL
  TG: 78 mg/dL
  TP: 5.4 g/dL
  gamma-GTP: 1.2 IU/L
9 h
  TERMINAL_BW: 205.2 g
  APTT: 15.9 s
  Bas: 0%
  Eos: 0.8%
  Fbg: 268 mg/dL
  Ht: 39.5%
  Lym: 74.6%
  MCH: 21.3 pg
  MCHC: 34.1%
  MCV: 62.4 fL
  Mono: 2.6%
  Neu: 21.6%
  PT: 12.4 s
  Plat: 117.6 x10_4/uL
  RBC: 632.8 x10_4/ul
  Ret: 7.6%
  WBC: 69.1 x10_2/uL
  KIDNEY_L: 0.9 g
  KIDNEY_R: 0.9 g
  KIDNEY_TOTAL: 1.7 g
  LIVER: 7.9 g
  ALP: 1428 IU/L
  ALT: 34.8 IU/L
  AST: 67.4 IU/L
  BUN: 10.6 mg/dL
  CRE: 0.2 mg/dL
  Ca: 10.6 mg/dL
  Cl: 103.6 meq/L
  DBIL: 0.02 mg/dL
  GLC: 189 mg/dL
  IP: 10.7 mg/dL
  K: 3.6 meq/L
  LDH: 52.8 IU/L
  Na: 140.8 meq/L
  PL: 146 mg/dL
  RALB: 2.5 g/dL
  TBIL: 0.038 mg/dL
  TC: 80.2 mg/dL
  TG: 53.6 mg/dL
  TP: 5.2 g/dL
  gamma-GTP: 1 IU/L
24 h
  TERMINAL_BW: 212.4 g
  APTT: 16.5 s
  Bas: 0%
  Eos: 1%
  Fbg: 285.8 mg/dL
  Ht: 38.8%
  Lym: 73.8%
  MCH: 21.6 pg
  MCHC: 34.2%
  MCV: 63.2 fL
  Mono: 3%
  Neu: 21.8%
  PT: 12.2 s
  Plat: 112.5 x10_4/uL
  RBC: 614 x10_4/ul
  Ret: 7.3%
  WBC: 80.5 x10_2/uL
  KIDNEY_L: 0.9 g
  KIDNEY_R: 0.9 g
  KIDNEY_TOTAL: 1.9 g
  LIVER: 9.7 g
  ALP: 1823.2 IU/L
  ALT: 42.8 IU/L
  AST: 71.4 IU/L
  BUN: 14.8 mg/dL
  CRE: 0.2 mg/dL
  Ca: 11 mg/dL
  Cl: 104.6 meq/L
  DBIL: 0.02 mg/dL
  GLC: 179.8 mg/dL
  IP: 8.4 mg/dL
  K: 4 meq/L
  LDH: 61 IU/L
  Na: 142.6 meq/L
  PL: 147 mg/dL
  RALB: 2.6 g/dL
  TBIL: 0.032 mg/dL
  TC: 79.8 mg/dL
  TG: 71.6 mg/dL
  TP: 5.5 g/dL
